The values that follow are results of earlier work, collected in patent publication US20060079481A1, “Method of treating/preventing mucositis” (priority 2004, published 2006).

Data set [1] has as its system oral mucositis. The following applies: Dodd et al. 1996.
The subject of data set [2] is oral mucositis. The following applies: for effect in oral mucositis / risk of indirect mucotoxicity from bacteria and fungi: literature reports; for risk of indirect mucotoxicity from bacteria and fungi: prophylactic use.

`O=c1[nH]cc(F)c(=O)[nH]1` [5-fluorouracil]: the “prevalence of chemotherapy-induced oral mucositis” value in the data set with oral mucositis [1] is on record as 75%. On to `Oc1ncnc2[nH]ncc12` [allopurinol], for which the “effect in oral mucositis” value in the data set on oral mucositis [2] is recorded as “failed to show effect”. With `[H]/N=C(\N/C(=N/[H])NCCCCCCNC(=N)NC(=N)Nc1ccc(Cl)cc1)Nc1ccc(Cl)cc1` [chlorhexidine], the “risk of indirect mucotoxicity from bacteria and fungi” value (shortened to “risk of indirect mucotoxicity”) in the data set on oral mucositis [2] is “reduce the risk”. As to `Clc1ccccc1C(c1ccccc1)(c1ccccc1)n1ccnc1` [clotrimazole], in the data set on oral mucositis [2], the “risk of indirect mucotoxicity” value is given as “reduce the risk”. Turning to `C[C@@H]1[C@H](O)[C@@H](C)/C=C/C=C/CC/C=C/C=C/C=C/C=C/C(O[C@H]2O[C@H](C)[C@@H](O)[C@H](N)[C@@H]2O)CC2O[C@](O)(CC(O)C(O)CCC(O)CC(O)CC(O)CC(=O)O[C@H]1C)CC(O)C2C(=O)O` (stereo partly drawn) [nystatin], in the data set on oral mucositis [2], the “risk of indirect mucotoxicity” value was “reduce the risk”.

In the case of `CC(=O)CCCCn1c(=O)c2c(ncn2C)n(C)c1=O` [pentoxifylline], in the data set with oral mucositis [2], the “effect in oral mucositis” value was “failed to show effect”. For the molecule `CCCCC[C@H](O)/C=C/[C@H]1[C@H](O)CC(=O)[C@@H]1C/C=C\CCCC(=O)O` [prostaglandin E2], the “effect in oral mucositis” value in the data set with oral mucositis [2] is on record as “failed to show effect”.

On to Sucralfate, for which the “benefit in oral mucositis” value in the data set on oral mucositis [2] (patients receiving a cisplatin/fluorouracil regimen for various solid tumors (Pfeiffer et al. 1990)) is on record as “modest benefit”.

B1: filgrastim: a granulocyte colony-stimulating factor (protein, chains of the INN, looked up)
chain: MTPLGPASSLPQSFLLKCLEQVRKIQGDGAALQEKLCATYKLCHPEELVLLGHSLGIPWAPLSSCPSQALQLAGCLSQLHSGLFLYQGLLQALEGISPELGPTLDTLQLDVADFATTIWQQMEELGMAPALQPTQGAMPAFASAFQRRAGGVLVASHLQSFLEVSYRVLRHLAQP
For B1, the “effect in oral mucositis” value with oral mucositis [2] is reported as “failed to show effect”.
